In US10280173B2, “Ibrutinib solid forms and production process therefor” (WAVELENGTH ENTERPRISES LTD., priority 2014, dated 2019):

Assays:
[1] = Hygroscopicity test according to the European Pharmacopoeia, 5.11; type: physicochemical; details: 80±2% relative humidity, 25° C., 24 hours
Protocol: The hygroscopicity test was carried out according to the European Pharmacopoeia, 5.11 Characters Section in Monographs at ambient temperature (about 25° C.) on substance “as is”.
Desiccator with saturated ammonium chloride solution was prepared as follows: to a 100 mL of water was added accurately weighed 46.3 g of ammonium chloride under mixing. The solubility of ammonium chloride in water at ambient temperature is about 41.4 g/100 mL water at 30° C. An amount of amorphous ibrutinib was placed in a glass weighing vessel with stopper (m1) and weighed (m2). The un-stoppered vessel was placed in a desiccator containing a saturated solution of ammonium chloride (80±2% relative humidity) at 25° C. for 24 hours. The weighing vessel was stoppered and weighed (m3). The percentage increase in mass was calculated according to the following formula: […]
The following Table 10 includes the standard defined hygroscopicity values according to the European Pharmacopoeia, 5.11 Characters Section in Monographs: […]

[2] = rats; cited from earlier work

Structure (SMILES) | degree of hygroscopicity [1] | Increase in mass % ([1]; substance as is) [%] | Increase in mass g ([1]; m3 minus m2) [g] | oral bioavailability [2] [%]
C=CC(=O)N1CCC[C@@H](n2nc(-c3ccc(Oc4ccccc4)cc3)c3c(N)ncnc32)C1 [amorphous ibrutinib] | slightly hygroscopic | 1.24 | 0.01077 | –
C=CC(=O)N1CCC[C@@H](n2nc(-c3ccc(Oc4ccccc4)cc3)c3c(N)ncnc32)C1 [ibrutinib, 1-[(3R)-3-[4-amino-3-(4-phenoxyphenyl)-1H-pyrazolo[3,4-d]pyrimidin-1-yl]piperidin-1-yl]prop-2-en-1-one] | – | – | – | 22.8
